Reference: patent US7993670B2, “Medical pad, and method for making and using” (General Wound Kare, Inc., priority 2003, dated 2011)

System: wound
Assay: Clinical experience: treatment of a patient's wound
[1] = after a week of daily 1% gentian violet solution

Text: A change in the procedure was made. Instead of the direct application of the 1% gentian violet solution, a polyurethane pad, containing a reduced amount of gentian violet, mixed with glycerin and water, and then dried, was applied to the wound covered by the scab. Daily washings were continued and the scab was eventually debrided.

**Q.** Which results are given for `CN(C)c1ccc(C(=C2C=CC(=[N+](C)C)C=C2)c2ccc(N(C)C)cc2)cc1` [gentian violet]?
**A.** scab formation (1% gentian violet solution applied daily, wound washed daily with soap and water): scab was formed; infection of the wound [1]: no evidence of any infection; size of the wound [1]: remained the same; staining of the painted wound area (liquid gentian violet solution at 1% strength painted on the wound daily): stained purple
